# Patent US7659400B2, “Radiolabelled benzamide analogues, their synthesis and use in diagnostic imaging” (Washington University, priority 2003, dated 2010)
# “And” between values parts separate entries of the source, which are not always exact repeats. Equal values may be shown once. Read-outs that look alike come from different tables or passages of the source.
# What was measured:
# [1] = biological target: T1, σ2 receptors (Rattus norvegicus, UniProt Q5U3Y7); assay: σ2 receptor binding assay, [^3H]DTG in the presence of (+)-pentazocine, rat liver membrane homogenates; settings: for σ1:σ2 Ratio: ratio of Ki values
# T1 construct: conducted using rat liver membrane homogenates; from tissue; host or cells: rat liver membrane homogenates
# T1 sequence (Q5U3Y7 1-176): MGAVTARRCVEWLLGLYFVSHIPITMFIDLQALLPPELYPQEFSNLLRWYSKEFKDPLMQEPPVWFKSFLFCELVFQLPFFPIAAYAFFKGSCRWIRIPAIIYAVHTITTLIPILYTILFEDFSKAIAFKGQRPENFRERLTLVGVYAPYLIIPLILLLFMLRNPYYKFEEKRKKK
# Protocol: The incubation time was 120 min at room temperature. […] All other procedures were identical to those described for the σ1 receptor binding assay above.
# [2] = biological target: σ1 receptors (Cavia porcellus, UniProt Q60492)
# Protocol: In these assays, the novel sigma ligands were dissolved in N,N-dimethylformamide (DMF), DMSO or ethanol, and then diluted in 50 mM Tris-HCl buffer containing 150 mM NaCl and 100 mM EDTA at pH 7.4 prior to performing the σ1 and σ2 receptor binding assays. […] The samples were harvested and filtered rapidly through a 96-well fiber glass filter plate (millipore, Billerica, Mass.) that had been presoaked with 100 μL of 50 mM Tris-HCl buffer at pH 8.0 for 1 h.
# The Ki values were determine from Scatchard plots.
# [3] = tested on: EMT-6 tumors; assay: Biodistribution of 18F-labeled ligands in mice bearing EMT-6 tumors; assay type: in vivo, female Balb/c mice; settings: for clearance from the blood (in words): mouse, in vivo
# Protocol: This example illustrates in vivo evaluation of compounds of the present teachings. All animal experiments were conducted in compliance with the Guidelines for the Care and Use of Research Animals established by Washington University's Animal Studies Committee. EMT-6 mouse mammary adenocarcinoma cells (5×10^5 cells in 100 uL of phosphate-buffered saline) were implanted subcutaneously in the scapular region of female Balb/c mice (˜2-month old and 17-22 g; Charles River Laboratories). […] Groups of at least 4 mice were used for each time point. […] After counting, the percentage of the injected dose per gram of tissue (%ID/g) was calculated. The tumor/organ ratios were calculated by dividing the %ID/g of the tumor by the %ID/g of each organ.
# [4] = 60 min (1 h) after i.v. injection
# [5] = 120 min (2 h) after i.v. injection
# Chain of σ1 receptors (Q60492 whole entry): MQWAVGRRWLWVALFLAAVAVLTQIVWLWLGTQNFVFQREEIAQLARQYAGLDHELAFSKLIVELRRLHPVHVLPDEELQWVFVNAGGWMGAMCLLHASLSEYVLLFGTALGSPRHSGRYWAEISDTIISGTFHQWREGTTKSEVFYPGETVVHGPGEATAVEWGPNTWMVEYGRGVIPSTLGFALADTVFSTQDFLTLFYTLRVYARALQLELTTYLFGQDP
compound,measurement,setting,value
"5-bromo-N-[4-(6,7-dimethoxy-3,4-dihydro-1H-isoquinolin-2-yl)-butyl]-2-(2-fluoro-ethoxy)-3-methoxy-benzamide [compound 3b]",Ki,"[1]; rat liver membranes, [^3H]DTG, mean ± SEM",386 ± 93 nM
same,σ1:σ2 Ratio,[1],40
same,Ki,[2],15300 nM
COc1cc2c(cc1OC)CN(CCCCNC(=O)c1cc(Br)ccc1OCC[18F])CC2 [[^18F]3d],Biodistribution: blood,[3]; 5 min after i.v. injection,3.57 ± 0.43 %ID/g
same,Biodistribution: bone,[3]; 5 min after i.v. injection,2.90 ± 0.39 %ID/g
same,Biodistribution: brain,[3]; 5 min after i.v. injection,1.09 ± 0.11 %ID/g
same,Biodistribution: fat,[3]; 5 min after i.v. injection,2.85 ± 0.47 %ID/g
same,Biodistribution: heart,[3]; 5 min after i.v. injection,3.74 ± 0.37 %ID/g
same,Biodistribution: kidney,[3]; 5 min after i.v. injection,42.94 ± 3.34 %ID/g
same,Biodistribution: liver,[3]; 5 min after i.v. injection,32.60 ± 3.96 %ID/g
same,Biodistribution: lung,[3]; 5 min after i.v. injection,12.08 ± 1.98 %ID/g
same,Biodistribution: muscle,[3]; 5 min after i.v. injection,1.95 ± 0.19 %ID/g
same,Biodistribution: tumor (tumor uptake),[3]; 5 min after i.v. injection,3.28 ± 0.41 %ID/g
same,Biodistribution: blood,[3]; 30 min after i.v. injection,2.81 ± 0.32 %ID/g
same,Biodistribution: bone,[3]; 30 min after i.v. injection,1.17 ± 0.06 %ID/g
same,Biodistribution: brain,[3]; 30 min after i.v. injection,0.40 ± 0.03 %ID/g
same,Biodistribution: fat,[3]; 30 min after i.v. injection,0.96 ± 0.13 %ID/g
same,Biodistribution: heart,[3]; 30 min after i.v. injection,1.55 ± 0.11 %ID/g
same,Biodistribution: kidney,[3]; 30 min after i.v. injection,17.55 ± 2.75 %ID/g
same,Biodistribution: liver,[3]; 30 min after i.v. injection,13.12 ± 1.39 %ID/g
same,Biodistribution: lung,[3]; 30 min after i.v. injection,3.08 ± 0.23 %ID/g
same,Biodistribution: muscle,[3]; 30 min after i.v. injection,0.98 ± 0.18 %ID/g
same,Biodistribution: tumor (tumor uptake),[3]; 30 min after i.v. injection,2.59 ± 0.19 %ID/g
same,Biodistribution: tumor (tumor uptake),[3]; [4],2.09 ± 0.28 %ID/g
same,Biodistribution: blood,[3]; 60 min after i.v. injection,1.69 ± 0.63 %ID/g
same,Biodistribution: bone,[3]; 60 min after i.v. injection,1.12 ± 0.16 %ID/g
same,Biodistribution: brain,[3]; 60 min after i.v. injection,0.32 ± 0.05 %ID/g
same,Biodistribution: fat,[3]; 60 min after i.v. injection,0.38 ± 0.05 %ID/g
same,Biodistribution: heart,[3]; 60 min after i.v. injection,1.04 ± 0.21 %ID/g
same,Biodistribution: kidney,[3]; 60 min after i.v. injection,6.92 ± 1.61 %ID/g
same,Biodistribution: liver,[3]; 60 min after i.v. injection,5.69 ± 0.54 %ID/g
same,Biodistribution: lung,[3]; 60 min after i.v. injection,1.60 ± 0.27 %ID/g
same,Biodistribution: muscle,[3]; 60 min after i.v. injection,0.58 ± 0.11 %ID/g
same,Biodistribution: tumor (tumor uptake),[3]; [5],0.96 %ID/g and 0.96 ± 0.24 %ID/g
same,Biodistribution: blood,[3]; 120 min after i.v. injection,0.52 ± 0.10 %ID/g
same,Biodistribution: bone,[3]; 120 min after i.v. injection,1.28 ± 0.28 %ID/g
same,Biodistribution: brain,[3]; 120 min after i.v. injection,0.20 ± 0.03 %ID/g
same,Biodistribution: fat,[3]; 120 min after i.v. injection,0.15 ± 0.06 %ID/g
same,Biodistribution: heart,[3]; 120 min after i.v. injection,0.40 ± 0.07 %ID/g
same,Biodistribution: kidney,[3]; 120 min after i.v. injection,1.12 ± 0.16 %ID/g
same,Biodistribution: liver,[3]; 120 min after i.v. injection,2.30 ± 0.33 %ID/g
same,Biodistribution: lung,[3]; 120 min after i.v. injection,0.51 ± 0.08 %ID/g
same,Biodistribution: muscle,[3]; 120 min after i.v. injection,0.28 ± 0.10 %ID/g
same,tumor:fat ratio,[3]; 2 h after i.v. injection,~6
same,clearance from the blood (in words),[3],cleared much more slowly from the blood than [^18F]3c
COc1cc2c(cc1OC)CN(CCCCNC(=O)c1cc(I)ccc1OCC[18F])CC2 [[^18F]3e],Biodistribution: blood,[3]; 5 min after i.v. injection,4.60 ± 0.44 %ID/g
same,Biodistribution: bone,[3]; 5 min after i.v. injection,2.59 ± 0.28 %ID/g
same,Biodistribution: brain,[3]; 5 min after i.v. injection,0.55 ± 0.04 %ID/g
same,Biodistribution: fat,[3]; 5 min after i.v. injection,2.32 ± 0.46 %ID/g
same,Biodistribution: heart,[3]; 5 min after i.v. injection,3.22 ± 0.27 %ID/g
same,Biodistribution: kidney,[3]; 5 min after i.v. injection,36.07 ± 2.28 %ID/g
same,Biodistribution: liver,[3]; 5 min after i.v. injection,37.26 ± 4.88 %ID/g
same,Biodistribution: lung,[3]; 5 min after i.v. injection,9.71 ± 0.83 %ID/g
same,Biodistribution: muscle,[3]; 5 min after i.v. injection,1.52 ± 0.10 %ID/g
same,Biodistribution: tumor (tumor uptake),[3]; 5 min after i.v. injection,2.54 ± 0.62 %ID/g
same,Biodistribution: blood,[3]; 30 min after i.v. injection,4.30 ± 0.59 %ID/g
same,Biodistribution: bone,[3]; 30 min after i.v. injection,1.31 ± 0.14 %ID/g
same,Biodistribution: brain,[3]; 30 min after i.v. injection,0.44 ± 0.04 %ID/g
same,Biodistribution: fat,[3]; 30 min after i.v. injection,1.04 ± 0.06 %ID/g
same,Biodistribution: heart,[3]; 30 min after i.v. injection,2.37 ± 0.29 %ID/g
same,Biodistribution: kidney,[3]; 30 min after i.v. injection,17.43 ± 1.95 %ID/g
same,Biodistribution: liver,[3]; 30 min after i.v. injection,17.35 ± 2.72 %ID/g
same,Biodistribution: lung,[3]; 30 min after i.v. injection,4.07 ± 0.46 %ID/g
same,Biodistribution: muscle,[3]; 30 min after i.v. injection,1.12 ± 0.05 %ID/g
same,Biodistribution: tumor (tumor uptake),[3]; 30 min after i.v. injection,2.81 ± 0.62 %ID/g
same,Biodistribution: tumor (tumor uptake),[3]; [4],2.72 ± 0.13 %ID/g
same,Biodistribution: blood,[3]; 60 min after i.v. injection,3.39 ± 0.29 %ID/g
same,Biodistribution: bone,[3]; 60 min after i.v. injection,0.99 ± 0.07 %ID/g
same,Biodistribution: brain,[3]; 60 min after i.v. injection,0.36 ± 0.02 %ID/g
same,Biodistribution: fat,[3]; 60 min after i.v. injection,0.62 ± 0.10 %ID/g
same,Biodistribution: heart,[3]; 60 min after i.v. injection,1.61 ± 0.11 %ID/g
same,Biodistribution: kidney,[3]; 60 min after i.v. injection,9.36 ± 0.90 %ID/g
same,Biodistribution: liver,[3]; 60 min after i.v. injection,7.31 ± 0.98 %ID/g
same,Biodistribution: lung,[3]; 60 min after i.v. injection,2.34 ± 0.12 %ID/g
same,Biodistribution: muscle,[3]; 60 min after i.v. injection,0.83 ± 0.04 %ID/g
same,Biodistribution: tumor (tumor uptake),[3]; [5],1.92 %ID/g and 1.92 ± 0.10 %ID/g
same,Biodistribution: blood,[3]; 120 min after i.v. injection,1.92 ± 0.59 %ID/g
same,Biodistribution: bone,[3]; 120 min after i.v. injection,1.67 ± 0.27 %ID/g
same,Biodistribution: brain,[3]; 120 min after i.v. injection,0.37 ± 0.06 %ID/g
same,Biodistribution: fat,[3]; 120 min after i.v. injection,0.44 ± 0.08 %ID/g
same,Biodistribution: heart,[3]; 120 min after i.v. injection,1.00 ± 0.23 %ID/g
same,Biodistribution: kidney,[3]; 120 min after i.v. injection,3.92 ± 0.98 %ID/g
same,Biodistribution: liver,[3]; 120 min after i.v. injection,4.25 ± 1.56 %ID/g
same,Biodistribution: lung,[3]; 120 min after i.v. injection,1.36 ± 0.24 %ID/g
same,Biodistribution: muscle,[3]; 120 min after i.v. injection,0.60 ± 0.11 %ID/g
same,clearance from the blood (in words),[3],cleared much more slowly from the blood than [^18F]3c
"COc1cc2c(cc1OC)CN(CCNC(=O)c1cc(C)ccc1OCCF)CC2 [compound 3a, [N-(6,7-dimethoxy-3,4-dihydro-1H-isoquinolin-2-yl)-ethyl]-2-(2-fluoro-ethoxy)-5-methyl benzamide]",Ki,[1],102 ± 4 nM
same,σ1:σ2 Ratio,[1],222
same,Ki,[2],22800 nM
"COc1cc2c(cc1OC)CN(CCCCNC(=O)c1cc(Br)ccc1OCCF)CC2 [compound 3d, N-[4-(6,7-dimethoxy-3,4-dihydro-1H-isoquinolin-2-yl)-butyl]-2-(2-fluoro-ethoxy)-5-bromo-benzamide]",Ki,[1],0.65 ± 0.22 nM
same,σ1:σ2 Ratio,[1],"1,656"
same,Ki,[2],1080 nM
"COc1cc2c(cc1OC)CN(CCCCNC(=O)c1cc(I)ccc1OCCF)CC2 [compound 3e, N-[4-(6,7-dimethoxy-3,4-dihydro-1H-isoquinolin-2-yl)-butyl]-2-(2-fluoro-ethoxy)-5-iodo-benzamide]",Ki,[2],1300 nM
COc1cc2c(cc1OC)CN(CCCCNC(=O)c1cc(I)cc(OC)c1OCCF)CC2 [compound 3f],Ki,[1],0.26 ± 0.07 nM
same,σ1:σ2 Ratio,[1],"8,190"
same,Ki,[2],2150 nM
